Laboratory results taken from patent US11883435B2, “Compositions and methods for treating a clinical condition through the use of hematopoietic stem cells” (Indiana University Research and Technology Corporation, priority 2017, dated 2024).

Legend:
mouse bone marrow HSCs = experiment: Number of mouse bone marrow HSCs collected and processed with antioxidants or epigenetic inhibitors (flow cytometry); type: cell-based; conditions: collected in ambient air
mouse bone marrow HSC = conditions: ambient air (about 21% O2); cited from earlier work
human cord blood HSC = conditions: ambient air (about 21% O2); cited from earlier work

**Q.** For O=C1O[C@H]([C@@H](O)CO)C(O)=C1OP(=O)(O)O [AAP, ascorbic acid 2-phosphate], which “increase in numbers of HSC” value (mouse bone marrow HSCs; AAP alone (0.22 mM)) is on record?
**A.** not AAP alone, significantly increased

**Q.** What does the source list for CC(=O)N[C@@H](CS)C(=O)O [NAC, N-Acetyl-Cysteine]?
**A.** change in numbers of collected HSCs (mouse bone marrow HSCs; 1 mM NAC): no significant change; increase in numbers of collected HSCs (mouse bone marrow HSCs; higher dose of NAC (3 mM)): no increase

**Q.** For cyclosporine A, which “numbers of HSC” value (mouse bone marrow HSC) is on record?
**A.** increased numbers of HSC

**Q.** What about the “numbers of HSC” value (human cord blood HSC) of the same compound?
**A.** increased numbers of HSC
